# Measured values from patent US10227323B2, “Glucosylceramide synthase inhibitors for the treatment of diseases” (BIOMARIN PHARMACEUTICAL INC., priority 2013, dated 2019).
# Biological target: T1, GCS (Canis lupus familiaris, UniProt A0A8I3MXG6)
# T1 sequence (A0A8I3MXG6 1-394): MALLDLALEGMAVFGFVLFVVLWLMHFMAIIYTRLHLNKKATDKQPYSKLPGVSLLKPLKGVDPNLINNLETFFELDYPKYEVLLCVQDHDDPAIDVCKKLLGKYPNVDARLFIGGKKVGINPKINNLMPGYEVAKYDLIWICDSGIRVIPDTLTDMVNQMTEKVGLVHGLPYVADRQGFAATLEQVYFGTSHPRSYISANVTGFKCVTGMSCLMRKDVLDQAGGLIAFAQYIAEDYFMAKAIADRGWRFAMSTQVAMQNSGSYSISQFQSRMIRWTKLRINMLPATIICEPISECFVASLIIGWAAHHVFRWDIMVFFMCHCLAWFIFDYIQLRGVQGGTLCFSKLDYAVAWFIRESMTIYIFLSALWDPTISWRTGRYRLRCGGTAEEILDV
# Experiment: Assay 1: GCS Enzymatic Assay (MDCK cell lysate, C6-NBD-Ceramide, LC/MS)
# Type: biochemical, canine
# Settings: Table 1; MDCK cell lysate; read-out: IC50 (nM) generated from Assay 1
# Method: This assay was modified based on the study by Larsen et al. (J. Lipid Res. 2011, 53, 282). Madin-Darby canine kidney (MDCK) cell lysate was prepared using M-PER Mammalian Protein Extraction Reagent (Thermal Scientific) in the presence of a protease inhibitor cocktail (Roche). Protein concentration was determined using BCA assay kit (Pierce). Sixty micrograms of MDCK cell lysate was incubated with various concentrations of a compound described herein from 0.001 μM-10 μM, respectively, in 100 mM Tris buffer (pH 7.5) containing 10 mM MgCl2, 1 mM dithiothreitol, 1 mM EGTA, 2 mM NAD, 100 μM UDP-glucose, 10 μM C6-NBD-Ceramide (Matreya LLC, Pleasant Gap, Pa.), 35 μM dioleoylphosphatidylcholine and 5 μM sulfatide (Sigma) in a final reaction volume of 100 μL at 37° C. for 1 hour. 0.1% DMSO was used as mock treatment or control. The reaction was terminated by adding 100 μL acetonitrile solution and subjected to LC/MS analysis.
# The quantitative analysis of NBD-Ceramide and glucosylceramide was performed on a Shimadzu ultra-fast liquid chromatography (Shimadzu, Japan) coupled with API 4000 triple quadrupole mass spectrometer (Applied Biosystems, Concord, Ontario, Canada). Sample separation was conducted on a Waters Xbridge™ BEH130 C18, 100 mm×4.6 mm i.d, 3.5 μm (Milford, Mass., USA). The mobile phase consisted of water and acetonitrile supplemented with 0.1% formic acid (v/v). The flow rate was 1.0 mL/min. The initial mobile phase was 20% acetonitrile and was ramped in a linear fashion to 50% acetonitrile in 0.4 min. From 0.4 to 1.5 min, the gradient was ramped to 98% acetonitrile, and then was held at […] until 8.0 min. Acetonitrile was reset to 20% in 1.5 min, and maintained until 10.0 min. The total run time was 10.0 min. The MS/MS detection was performed in ESI positive mode. The mass transition of NBD-Ceramide was m/z 576.36→558.40 under the collision energy of 15 V, and the mass transition of glucosylceramide was m/z 738.35→558.40 under 21V collision energy. The cell lysate was diluted with equal volume of acetonitrile. Aliquots of 50 μL diluted samples were added to 1.5 mL tubes, and 100 μL of acetonitrile containing internal standard (100 ng/mL tolbutamide) were added for protein precipitation. The mixture were vortexed and then centrifuged at 13000 rpm for 10 min. 70 μL of supernatant were mixed with 140 μL of H2O and the final solution were injected for LC/MS/MS analysis and IC50's and/or percent inhibitions calculated.
row,IC50,SMILES
1,< 50 nM,"O=C(N[C@H](CN1CCCC1)[C@H](O)c1ccc(OC2CCOC2)c(Cl)c1)C(F)(F)c1cc2cc(Cl)ccc2o1 (single isomer, unassigned) [Compound 47]"
2,< 50 nM,"O=C(N[C@H](CN1CCCC1)[C@H](O)c1ccc2c(c1)OCCO2)C(F)(F)C1Cc2ccccc2C1 [Compound 1, 2-(2,3-dihydro-1H-inden-2-yl)-N-((1R,2R)-1-(2,3-dihydrobenzo[b][1,4]dioxin-6-yl)-1-hydroxy-3-(pyrrolidin-1-yl)propan-2-yl)-2,2-difluoroacetamide]"
3,50 to 5000 nM,"O=C(N[C@H](CN1CCCC1)[C@H](O)c1ccc2c(c1)OCCO2)C(F)(F)c1ccc2c(c1)OCCO2 [Compound 2, 2-(2,3-dihydrobenzo[b][1,4]dioxin-6-yl)-N-((1R,2R)-1-(2,3-dihydrobenzo[b][1,4]dioxin-6-yl)-1-hydroxy-3-(pyrrolidin-1-yl)propan-2-yl)-2,2-difluoroacetamide]"
4,< 50 nM,"O=C(N[C@H](CN1CCCC1)[C@H](O)c1ccc2c(c1)OCCO2)C(F)(F)c1cc2cc(Cl)ccc2s1 [Compound 3, 2-(5-chlorobenzo[b]thiophen-2-yl)-N-((1R,2R)-1-(2,3-dihydrobenzo[b][1,4]dioxin-6-yl)-1-hydroxy-3-(pyrrolidin-1-yl)propan-2-yl)-2,2-difluoroacetamide]"
5,< 50 nM,"COc1ccc([C@H](O)[C@@H](CN2CCCC2)NC(=O)C(F)(F)C2Cc3ccccc3C2)cc1F [Compound 5, 2-(2,3-dihydro-1H-inden-2-yl)-2,2-difluoro-N-((1S,2R)-1-(3-fluoro-4-methoxyphenyl)-1-hydroxy-3-(pyrrolidin-1-yl)propan-2-yl)acetamide]"
6,50 to 5000 nM,"COc1ccc(C(O)[C@@H](CN2CCCC2)NC(=O)C(F)(F)C2Cc3ccccc3C2)cc1F (stereo partly drawn) [Compound 5A, 2-(2,3-dihydro-1H-inden-2-yl)-2,2-difluoro-N-((2R)-1-(3-fluoro-4-methoxyphenyl)-1-hydroxy-3-(pyrrolidin-1-yl)propan-2-yl)acetamide]"
7,< 50 nM,"O=C(N[C@H](CN1CCCC1)[C@H](O)c1ccc2c(c1)OCCO2)C(F)(F)C1Cc2cc(Cl)c(Cl)cc2C1 [Compound 7, 2-(5,6-dichloro-2,3-dihydro-1H-inden-2-yl)-N-((1R,2R)-1-(2,3-dihydrobenzo[b][1,4]dioxin-6-yl)-1-hydroxy-3-(pyrrolidin-1-yl)propan-2-yl)-2,2-difluoroacetamide]"
8,< 50 nM,"O=C(N[C@H](CN1CCCC1)[C@H](O)c1ccc2c(c1)OCCO2)C(F)(F)c1cc2cc(Cl)ccc2o1 [Compound 11, 2-(5-chlorobenzofuran-2-yl)-N-((1R,2R)-1-(2,3-dihydrobenzo[b][1,4]dioxin-6-yl)-1-hydroxy-3-(pyrrolidin-1-yl)propan-2-yl)-2,2-difluoroacetamide]"

# Same assay, conditions: Table 1; values marked *; MDCK cell lysate
row,SMILES,% inhibition generated from Assay 1
1,"COc1ccc(C(O)[C@@H](CN2CCCC2)NC(=O)C(F)(F)c2cc3cc(Cl)ccc3s2)cc1F (stereo partly drawn) [Compound 4, 2-(5-chlorobenzo[b]thiophen-2-yl)-2,2-difluoro-N-((2R)-1-(3-fluoro-4-methoxyphenyl)-1-hydroxy-3-(pyrrolidin-1-yl)propan-2-yl)acetamide]",B* (the compound had a % inhibition of greater than or equal to about 3% but less than about 50%)
2,"COc1ccc([C@@H](O)[C@@H](CN2CCCC2)NC(=O)C(F)(F)C2Cc3ccccc3C2)cc1F [Compound 5B, 2-(2,3-dihydro-1H-inden-2-yl)-2,2-difluoro-N-((1R,2R)-1-(3-fluoro-4-methoxyphenyl)-1-hydroxy-3-(pyrrolidin-1-yl)propan-2-yl)acetamide]",B* (the compound had a % inhibition of greater than or equal to about 3% but less than about 50%)
3,"O=C(N[C@H](CN1CCCC1)[C@H](O)c1ccc2c(c1)OCCO2)C(F)(F)c1nc2cc(Cl)ccc2s1 [Compound 6, 2-(5-chlorobenzo[d]thiazol-2-yl)-N-((1R,2R)-1-(2,3-dihydrobenzo[b][1,4]dioxin-6-yl)-1-hydroxy-3-(pyrrolidin-1-yl)propan-2-yl)-2,2-difluoroacetamide]",B* (the compound had a % inhibition of greater than or equal to about 3% but less than about 50%)
4,"COc1ccc(F)c([C@@H](O)[C@@H](CN2CCCC2)NC(=O)C(F)(F)C2Cc3ccccc3C2)c1 [Compound 8, 2-(2,3-dihydro-1H-inden-2-yl)-2,2-difluoro-N-((1R,2R)-1-(2-fluoro-5-methoxyphenyl)-1-hydroxy-3-(pyrrolidin-1-yl)propan-2-yl)acetamide]",B* (the compound had a % inhibition of greater than or equal to about 3% but less than about 50%)
5,"COc1ccc(F)c([C@H](O)[C@@H](CN2CCCC2)NC(=O)C(F)(F)C2Cc3ccccc3C2)c1 [Compound 8J, 2-(2,3-dihydro-1H-inden-2-yl)-2,2-difluoro-N-((1S,2R)-1-(2-fluoro-5-methoxyphenyl)-1-hydroxy-3-(pyrrolidin-1-yl)propan-2-yl)acetamide]",B* (the compound had a % inhibition of greater than or equal to about 3% but less than about 50%)
6,"Cn1c(C(F)(F)C(=O)N[C@H](CN2CCCC2)[C@H](O)c2ccc3c(c2)OCCO3)nc2cc(Cl)ccc21 [Compound 10, 2-(5-chloro-1-methyl-1H-benzo[d]imidazol-2-yl)-N-((1R,2R)-1-(2,3-dihydrobenzo[b][1,4]dioxin-6-yl)-1-hydroxy-3-(pyrrolidin-1-yl)propan-2-yl)-2,2-difluoroacetamide]",B* (the compound had a % inhibition of greater than or equal to about 3% but less than about 50%)

# Same assay, conditions: Table 2; data marked by *
row,SMILES,% inhibition generated from Assay 1
1,"CC(C)Oc1cc(C(O)[C@@H](CN2CCCC2)NC(=O)C(F)(F)c2cc3cc(Cl)ccc3o2)ccn1 (stereo in doubt) [Compound 103, 2-(5-chlorobenzofuran-2-yl)-2,2-difluoro-N-((1S,2R)-1-hydroxy-1-(2-isopropoxypyridin-4-yl)-3-(pyrrolidin-1-yl)propan-2-yl)acetamide]",B* (the compound had a % inhibition of greater than or equal to about 3% but less than about 50%)
2,"O=C(N[C@H](CN1CCC1)C(O)c1cc(F)c2c(c1)OCCO2)C(F)(F)CCc1ccc2ccccc2c1 (stereo in doubt) [Compound 113, N-((1S,2R)-3-(azetidin-1-yl)-1-(8-fluoro-2,3-dihydrobenzo[b][1,4]dioxin-6-yl)-1-hydroxypropan-2-yl)-2,2-difluoro-4-(naphthalen-2-yl)butanamide]",B* (the compound had a % inhibition of greater than or equal to about 3% but less than about 50%)
3,"CC1(C)CCc2cc(C(O)[C@@H](CN3CCCC3)NC(=O)C(F)(F)CCc3ccc4ccccc4c3)ccc2O1 (stereo in doubt) [Compound 117, N-((1S,2R)-1-(2,2-dimethylchroman-6-yl)-1-hydroxy-3-(pyrrolidin-1-yl)propan-2-yl)-2,2-difluoro-4-(naphthalen-2-yl)butanamide]",B* (the compound had a % inhibition of greater than or equal to about 3% but less than about 50%)
4,"O=C(N[C@H](CN1CCCC1)C(O)c1ccc(N2CCOCC2)c(Cl)c1)C(F)(F)CCc1ccc2ccccc2c1 (stereo in doubt) [Compound 124, N-((1S,2R)-1-(3-chloro-4-morpholinophenyl)-1-hydroxy-3-(pyrrolidin-1-yl)propan-2-yl)-2,2-difluoro-4-(naphthalen-2-yl)butanamide]",B* (the compound had a % inhibition of greater than or equal to about 3% but less than about 50%)

# Same assay, conditions: Table 2; data without asterisk; read-out: IC50 (nM) generated from Assay 1
row,IC50,SMILES
1,50 to 5000 nM,"CC(C)Oc1ccc(C(O)[C@@H](CN2CCCC2)NC(=O)C(F)(F)c2cc3cc(Cl)ccc3o2)cn1 (stereo in doubt) [Compound 80, 2-(5-chlorobenzofuran-2-yl)-2,2-difluoro-N-((1S,2R)-1-hydroxy-1-(6-isopropoxypyridin-3-yl)-3-(pyrrolidin-1-yl)propan-2-yl)acetamide]"
